Structures can show the parent of a compound that is named as a salt.
Experiments:
anesthetized rat = test: Anesthetized rat spirometry screening assay; format: in vivo; details: 2 minute AUC of minute volume increase vs. comparator N-[2,6-di-(n-propylamino)-[1,3]pyrimidin-4-yl]-N,O-dimethyl-hydroxylamine
From the text: Effect of Compounds of the Invention on Respiratory Rate (RR), Tidal Volume (VT), and the Product Minute Volume Using an Anesthetized Rat Spirometry Screening Assay
Anesthetized rats provide a quick method of screening compounds for respiratory and cardiovascular activity. In contrast to the conscious rat model, this model offers an experimental set up with less variation in the baseline cardiovascular and respiratory measures. Compounds screened in this assay may be examined in a conscious rat model.
Rats were initially anesthetized with 3% isoflurane (inhaled) and femoral artery and vein cannulas were surgically inserted. Once cannulated, the rats were transitioned to urethane anesthesia (1.5 g/kg; i.v.) and a tracheal cut-down was performed. After placing the tracheal cannula, it was connected to a pneumotachometer to record respiratory airflow from which respiratory rate (RR), tidal volume (VT), and their product minute volume were derived. After the surgical preparation was complete, animals were allowed to stabilize for 30 minutes while respiratory rate, tidal volume, minute volume, blood pressure and heart rate were recorded continuously. Arterial blood gases (ABG) were obtained from arterial blood collected from the femoral artery. ABG measurements were taken before and 6 minutes after vehicle and each dose of compound administered. Compounds being screened were administered via bolus injections through the venous cannula followed by a saline flush (total time of administration is approximately 30 seconds), and the animal was monitored for at least 6 minutes for changes in cardiovascular efforts. Compounds were prepared in formulations identified to ensure optimal solubility. As such, vehicle controls were matched for the formulation of each compound tested. Dosing of the compound being screened was 0.1 and 0.3 mg/kg. The next dose was not administered until all cardiovascular and respiratory measures had returned to baseline levels. The positive control compounds used were N-[4,6-di-(n-propylamino)-[1,3,5]triazin-2-yl]-N,O-dimethyl-hydroxylamine or N-[2,6-di-(n-propylamino)-[1,3]pyrimidin-4-yl]-N,O-dimethyl-hydroxylamine (both administered at the end of each screening experiment (0.3 mg/kg dose) to validate the experiment and also to serve as a measure with which the compound being screened could be compared.
Data were analyzed by collecting cardiovascular and respiratory data in 30 second averages (BINs). Data were plotted 2 minutes before challenge and then 6 minutes after challenge.

in vitro = details: male, rat, microsomes
[1] = In vitro metabolic stability in human liver microsomes (HLM); details: both, human, liver microsomes

| Compound | AUC MV Inc (2 min) (ratio vs. std*) (anesthetized rat) [ratio vs. std] | half-life at 5 μM (in vitro) [h] | half-life at 5 μM [1] [h] |
| --- | --- | --- | --- |
| CCCCNc1nc(NCCC)c2nc(NCCCC)nc(NCCC)c2n1.Cl [Compound 8a, N^2,N^6-Di-n-butyl-N^4,N^8-di-n-propyl-pyrimido[5,4-d]pyrimidine-2,4,6,8-tetraamine hydrochloride] | 0.14 | 5.52 | > 8.33 |
| CCCNc1nc(NC(C)C)nc2c(NCCC)nc(NC(C)C)nc12.Cl [Compound 10a, N^2,N^6-Di-i-propyl-N^4,N^8-di-n-propyl-pyrimido[5,4-d]pyrimidine-2,4,6,8-tetraamine hydrochloride] | 0.07 | 2.7 | 7.7 |
| C#CCNc1nc(NC)nc2c(NCCC)nc(NC)nc12.Cl [Compound 13a, N^2,N^6-Dimethyl-N^4-n-propyl-N^8-prop-2-ynyl-pyrimido[5,4-d]pyrimidine-2,4,6,8-tetraamine hydrochloride] | 0.56 | 3.4 | 5.7 |
| CCCNc1nc(N(C)OC)nc2c(NCCC)nc(Cl)nc12.Cl [Compound 17a, N-(6-Chloro-4,8-bis-n-propylamino-pyrimido[5,4-d]pyrimidin-2-yl)-O,N-dimethyl-hydroxylamine hydrochloride] | 0.05 | 0.417 | 0.483 |
| CCCNc1nc(N(C)OC)nc2c(NCCC)nc(N(C)OC)nc12 [Compound 19a, N^2,N^6-Bis-(N-Methoxy(N-methyl)amino)-N^4,N^8-bis-n-propylamino-pyrimido[5,4-d]pyrimidine hydrochloride] | 0.00 | 1.77 | 1.83 |
| CCCNc1nc(N(C)OC)nc2c(NCCC)nc(NC)nc12.Cl [Compound 24a, O,N-Dimethyl-N-(6-methylamino-4,8-bis-n-propylamino-pyrimido[5,4-d]pyrimidin-2-yl)-hydroxylamine hydrochloride] | 0.43 | 2.7 | 1.98 |
| CCCNc1nc(N(C)C)nc2c(NCCC)nc(NC)nc12.Cl [Compound 29a, N^2,N^2,N^6-Trimethyl-N^4,N^8-di-n-propyl-pyrimido[5,4-d]pyrimidine-2,4,6,8-tetraamine hydrochloride] | 0.95 | 0.733 | 1.57 |
| CCCNc1nc(N(CC)CC)nc2c(NCCC)nc(NC)nc12.Cl [Compound 31a, N^2,N^2-Diethyl-N^6-methyl-N^4,N^8-di-n-propyl-pyrimido[5,4-d]pyrimidine-2,4,6,8-tetraamine hydrochloride] | 0.01 | 1.8 | 6.95 |
| CCCNc1nc(NCCO)nc2c(NCCC)nc(NC)nc12 [Compound 33a, 2-(6-Methylamino-4,8-bis-n-propylamino-pyrimido[5,4-d]pyrimidin-2-yl-amino)-ethanol] | 0.29 | 1.77 | 1.92 |
| CCCNc1nc(NCCOC)nc2c(NCCC)nc(NC)nc12 [Compound 35a, N^2-(2-Methoxyethyl)-N^6-methyl-N^4,N^8-di-n-propyl-pyrimido[5,4-d]pyrimidine-2,4,6,8-tetraamine] | 1.33 | 1.7 | 3.75 |
| CCCNc1nc(NCCOC(C)C)nc2c(NCCC)nc(NC)nc12 [Compound 37a, N^2-(2-Isopropoxy-ethyl)-N^6-methyl-N^4,N^8-di-n-propyl-pyrimido[5,4-d]pyrimidine-2,4,6,8-tetraamine] | 1.23 | 1.27 | 2.25 |
| CCCNc1nc(NCC2CC2)nc2c(NCCC)nc(NCC3CC3)nc12 [Compound 140a, N^2,N^6-Bis-cyclopropylmethyl-N^4,N^8-di-n-propyl-pyrimido[5,4-d]pyrimidine-2,4,6,8-tetraamine] | – | 0.833 | 1.18 |

— patent publication US9643971B2 (GALLEON PHARMACEUTICALS, INC., priority 2013, dated 2017)
